# PMC10507085, “Pharmacological inhibition of TBK1/IKKε blunts immunopathology in a murine model of SARS-CoV-2 infection” (Nature Communications, 2023)
# Assays:
# Assay in all cases: biochemical
# Design in all cases: KINOMEscan competition binding, DNA-tagged kinase against immobilised ligand, qPCR read-out
# Conditions in all cases: read-out: Percent Control
# NEK1 = NEK1 (Homo sapiens, UniProt Q96PY6)
# MAP3K10 = MAP3K10 (Homo sapiens, UniProt Q02779)
# EPHA7 = EPHA7 (Homo sapiens, UniProt Q15375)
# LCK = LCK (Homo sapiens, UniProt P06239)
# NEK5 = NEK5 (Homo sapiens, UniProt Q6P3R8)
# ACVR2A = ACVR2A (Homo sapiens, UniProt P27037)
# SRPK1 = SRPK1 (Homo sapiens, UniProt Q96SB4)
# CSF1R = CSF1R (Homo sapiens, UniProt P07333)
# CAMKK2 = CAMKK2 (Homo sapiens, UniProt Q96RR4)
# EPHA8 = EPHA8 (Homo sapiens, UniProt P29322)
# CSNK1E = CSNK1E (Homo sapiens, UniProt P49674)
# CDC42BPG = CDC42BPG (Homo sapiens, UniProt Q6DT37)
# MAP3K12 = MAP3K12 (Homo sapiens, UniProt Q12852)
# FGFR4 = FGFR4 (Homo sapiens, UniProt P22455)
# TGFBR2 = TGFBR2 (Homo sapiens, UniProt P37173)
# MAPK7 = MAPK7 (Homo sapiens, UniProt Q13164)
# WEE1 = WEE1 (Homo sapiens, UniProt P30291)
# EPHB2 = EPHB2 (Homo sapiens, UniProt P29323)
# PRKACB = PRKACB (Homo sapiens, UniProt P22694)
# ROCK2 = ROCK2 (Homo sapiens, UniProt O75116)
# CAMKK2, sequence (Q96RR4 whole entry): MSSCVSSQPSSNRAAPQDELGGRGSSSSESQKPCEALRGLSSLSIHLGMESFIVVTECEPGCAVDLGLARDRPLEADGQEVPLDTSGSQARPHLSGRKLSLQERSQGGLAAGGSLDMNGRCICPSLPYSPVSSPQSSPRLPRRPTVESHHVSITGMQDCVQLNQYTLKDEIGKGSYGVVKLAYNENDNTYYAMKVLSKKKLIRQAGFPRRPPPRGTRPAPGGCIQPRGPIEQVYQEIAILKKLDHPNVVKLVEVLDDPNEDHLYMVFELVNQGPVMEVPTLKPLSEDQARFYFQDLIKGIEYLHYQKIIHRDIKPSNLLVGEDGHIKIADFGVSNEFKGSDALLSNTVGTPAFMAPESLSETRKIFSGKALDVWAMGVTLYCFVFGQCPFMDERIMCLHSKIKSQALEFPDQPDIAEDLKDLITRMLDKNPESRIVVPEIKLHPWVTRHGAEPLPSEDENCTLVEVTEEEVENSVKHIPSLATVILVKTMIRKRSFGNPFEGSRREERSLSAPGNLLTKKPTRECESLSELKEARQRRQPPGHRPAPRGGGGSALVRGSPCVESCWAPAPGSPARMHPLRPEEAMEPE
# CSF1R, sequence (P07333 whole entry): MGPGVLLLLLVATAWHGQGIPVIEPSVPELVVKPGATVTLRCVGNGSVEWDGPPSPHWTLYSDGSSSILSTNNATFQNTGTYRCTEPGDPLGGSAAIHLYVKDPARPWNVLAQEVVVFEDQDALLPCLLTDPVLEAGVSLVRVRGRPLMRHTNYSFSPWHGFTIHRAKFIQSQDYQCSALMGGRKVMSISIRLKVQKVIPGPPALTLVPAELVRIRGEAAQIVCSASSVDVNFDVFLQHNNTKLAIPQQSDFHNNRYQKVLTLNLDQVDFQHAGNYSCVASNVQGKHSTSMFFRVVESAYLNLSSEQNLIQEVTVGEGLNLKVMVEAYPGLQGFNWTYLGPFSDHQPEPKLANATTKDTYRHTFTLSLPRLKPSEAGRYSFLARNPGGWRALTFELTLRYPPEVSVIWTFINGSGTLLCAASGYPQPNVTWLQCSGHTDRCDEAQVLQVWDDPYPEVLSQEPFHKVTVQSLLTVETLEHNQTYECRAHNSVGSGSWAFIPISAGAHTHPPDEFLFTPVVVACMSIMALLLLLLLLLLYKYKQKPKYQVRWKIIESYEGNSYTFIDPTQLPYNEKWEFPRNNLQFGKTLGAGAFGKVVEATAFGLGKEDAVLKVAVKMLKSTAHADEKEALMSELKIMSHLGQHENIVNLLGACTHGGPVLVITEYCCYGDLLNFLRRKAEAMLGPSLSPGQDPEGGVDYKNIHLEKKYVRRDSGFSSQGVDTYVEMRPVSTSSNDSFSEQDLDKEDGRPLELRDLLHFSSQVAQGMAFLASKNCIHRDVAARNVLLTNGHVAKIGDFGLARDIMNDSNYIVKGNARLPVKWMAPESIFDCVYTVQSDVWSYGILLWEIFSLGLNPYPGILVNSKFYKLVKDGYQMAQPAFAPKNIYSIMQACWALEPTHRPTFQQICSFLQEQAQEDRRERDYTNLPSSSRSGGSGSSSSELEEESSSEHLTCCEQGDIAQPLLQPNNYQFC
# CSNK1E, sequence (P49674 whole entry): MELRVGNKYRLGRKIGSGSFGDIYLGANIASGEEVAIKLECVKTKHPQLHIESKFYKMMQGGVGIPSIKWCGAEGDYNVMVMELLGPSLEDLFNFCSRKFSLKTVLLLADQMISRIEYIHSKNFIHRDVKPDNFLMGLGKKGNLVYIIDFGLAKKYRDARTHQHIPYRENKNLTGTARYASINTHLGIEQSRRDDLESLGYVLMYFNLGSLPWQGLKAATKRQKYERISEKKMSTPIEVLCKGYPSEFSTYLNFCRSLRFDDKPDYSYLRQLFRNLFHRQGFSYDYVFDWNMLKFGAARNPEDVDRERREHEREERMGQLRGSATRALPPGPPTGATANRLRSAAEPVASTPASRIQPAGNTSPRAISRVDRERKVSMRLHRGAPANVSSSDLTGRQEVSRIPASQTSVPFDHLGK
# MAP3K10, sequence (Q02779 whole entry): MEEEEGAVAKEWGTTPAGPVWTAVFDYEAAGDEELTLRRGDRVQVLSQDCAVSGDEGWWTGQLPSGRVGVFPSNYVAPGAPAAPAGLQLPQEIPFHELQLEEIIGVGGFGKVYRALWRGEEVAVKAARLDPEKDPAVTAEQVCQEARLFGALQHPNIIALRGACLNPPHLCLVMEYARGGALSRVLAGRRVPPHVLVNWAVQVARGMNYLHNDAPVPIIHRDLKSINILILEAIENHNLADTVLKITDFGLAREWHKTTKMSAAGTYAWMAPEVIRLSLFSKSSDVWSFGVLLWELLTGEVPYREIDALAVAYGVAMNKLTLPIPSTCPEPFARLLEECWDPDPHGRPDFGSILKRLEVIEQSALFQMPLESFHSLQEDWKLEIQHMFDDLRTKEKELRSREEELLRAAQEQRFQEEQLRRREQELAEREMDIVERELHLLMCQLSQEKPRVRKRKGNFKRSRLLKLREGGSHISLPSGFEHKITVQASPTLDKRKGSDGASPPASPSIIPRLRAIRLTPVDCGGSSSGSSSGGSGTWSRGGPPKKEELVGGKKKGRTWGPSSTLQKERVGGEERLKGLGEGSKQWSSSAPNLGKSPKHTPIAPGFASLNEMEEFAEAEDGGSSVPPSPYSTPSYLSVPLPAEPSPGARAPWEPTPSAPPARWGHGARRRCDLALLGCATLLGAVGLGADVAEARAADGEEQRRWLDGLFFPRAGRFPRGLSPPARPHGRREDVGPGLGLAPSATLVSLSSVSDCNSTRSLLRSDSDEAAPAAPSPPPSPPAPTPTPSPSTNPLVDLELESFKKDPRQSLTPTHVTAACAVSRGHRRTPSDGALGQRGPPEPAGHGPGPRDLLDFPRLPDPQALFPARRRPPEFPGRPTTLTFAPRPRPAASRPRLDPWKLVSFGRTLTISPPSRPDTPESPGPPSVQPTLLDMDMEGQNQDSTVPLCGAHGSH
# LCK, sequence (P06239 whole entry): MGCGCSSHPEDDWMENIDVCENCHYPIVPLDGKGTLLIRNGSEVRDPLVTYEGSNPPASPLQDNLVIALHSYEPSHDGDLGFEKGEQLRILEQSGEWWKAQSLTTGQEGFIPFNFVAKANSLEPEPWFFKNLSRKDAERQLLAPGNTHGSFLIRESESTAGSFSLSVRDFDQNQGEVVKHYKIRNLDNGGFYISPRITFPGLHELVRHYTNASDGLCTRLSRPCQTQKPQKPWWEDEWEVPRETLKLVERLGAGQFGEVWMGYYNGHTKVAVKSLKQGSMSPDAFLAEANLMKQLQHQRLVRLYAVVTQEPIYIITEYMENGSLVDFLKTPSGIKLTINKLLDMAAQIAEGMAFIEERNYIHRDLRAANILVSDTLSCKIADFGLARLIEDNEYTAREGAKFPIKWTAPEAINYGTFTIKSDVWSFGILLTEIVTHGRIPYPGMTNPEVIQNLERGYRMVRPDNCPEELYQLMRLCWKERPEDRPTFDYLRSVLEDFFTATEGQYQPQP
# CDC42BPG, sequence (Q6DT37 whole entry): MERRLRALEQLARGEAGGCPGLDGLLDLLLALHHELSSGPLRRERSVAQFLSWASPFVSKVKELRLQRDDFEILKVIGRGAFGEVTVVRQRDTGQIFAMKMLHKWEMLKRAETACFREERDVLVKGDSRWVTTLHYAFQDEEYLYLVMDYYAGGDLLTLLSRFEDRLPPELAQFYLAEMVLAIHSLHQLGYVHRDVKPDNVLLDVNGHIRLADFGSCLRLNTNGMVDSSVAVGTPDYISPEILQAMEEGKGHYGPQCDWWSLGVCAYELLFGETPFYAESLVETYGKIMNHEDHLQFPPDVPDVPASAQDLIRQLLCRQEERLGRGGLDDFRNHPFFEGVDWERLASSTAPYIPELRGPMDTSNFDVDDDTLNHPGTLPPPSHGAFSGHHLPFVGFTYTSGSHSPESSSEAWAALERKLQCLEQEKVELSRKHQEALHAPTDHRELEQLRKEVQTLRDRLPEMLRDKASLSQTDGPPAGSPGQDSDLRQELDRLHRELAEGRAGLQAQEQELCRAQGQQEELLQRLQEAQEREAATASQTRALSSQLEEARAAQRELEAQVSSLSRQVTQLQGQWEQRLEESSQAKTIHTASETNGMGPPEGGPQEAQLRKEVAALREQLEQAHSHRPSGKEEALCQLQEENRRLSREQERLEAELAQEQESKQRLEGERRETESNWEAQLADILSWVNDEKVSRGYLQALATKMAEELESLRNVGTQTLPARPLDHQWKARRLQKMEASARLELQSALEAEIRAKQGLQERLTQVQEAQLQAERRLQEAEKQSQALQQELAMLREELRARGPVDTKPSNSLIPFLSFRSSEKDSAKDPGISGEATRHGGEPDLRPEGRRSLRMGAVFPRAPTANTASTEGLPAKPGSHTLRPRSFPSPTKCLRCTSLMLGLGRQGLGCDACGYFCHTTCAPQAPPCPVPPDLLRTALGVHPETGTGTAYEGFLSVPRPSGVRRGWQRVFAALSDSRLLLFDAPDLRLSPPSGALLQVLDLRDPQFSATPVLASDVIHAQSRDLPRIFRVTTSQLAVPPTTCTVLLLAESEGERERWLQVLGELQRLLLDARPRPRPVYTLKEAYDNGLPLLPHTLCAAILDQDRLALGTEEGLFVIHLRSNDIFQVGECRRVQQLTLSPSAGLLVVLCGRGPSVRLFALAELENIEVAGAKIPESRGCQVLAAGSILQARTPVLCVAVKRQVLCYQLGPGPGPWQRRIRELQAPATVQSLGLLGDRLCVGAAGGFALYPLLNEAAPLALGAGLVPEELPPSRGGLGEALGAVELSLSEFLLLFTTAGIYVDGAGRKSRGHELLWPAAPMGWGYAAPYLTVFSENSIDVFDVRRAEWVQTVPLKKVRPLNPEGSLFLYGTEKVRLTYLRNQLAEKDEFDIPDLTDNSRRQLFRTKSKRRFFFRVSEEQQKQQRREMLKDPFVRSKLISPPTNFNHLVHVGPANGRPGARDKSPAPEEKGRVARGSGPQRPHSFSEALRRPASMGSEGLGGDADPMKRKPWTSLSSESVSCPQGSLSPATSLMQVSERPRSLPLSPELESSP
smiles,measurement,setting,value
"Oc1ccc(C2=Cc3ccc(O)cc3OC2)cc1 [compound 1, idronoxil]",remaining binding at 10 µM,NEK1,71%
same,remaining binding at 10 µM,MAP3K10,82%
same,remaining binding at 10 µM,EPHA7,96%
same,remaining binding at 10 µM,LCK,60%
same,remaining binding at 10 µM,NEK5,89%
same,remaining binding at 10 µM,ACVR2A,66%
same,remaining binding at 10 µM,SRPK1,100%
same,remaining binding at 10 µM,CSF1R,26%
same,remaining binding at 10 µM,CAMKK2,68%
same,remaining binding at 10 µM,EPHA8,89%
same,remaining binding at 10 µM,CSNK1E,74%
same,remaining binding at 10 µM,CDC42BPG,93%
same,remaining binding at 10 µM,MAP3K12,75%
same,remaining binding at 10 µM,FGFR4,95%
same,remaining binding at 10 µM,TGFBR2,100%
same,remaining binding at 10 µM,MAPK7,90%
same,remaining binding at 10 µM,WEE1,84%
same,remaining binding at 10 µM,EPHB2,86%
same,remaining binding at 10 µM,PRKACB,88%
same,remaining binding at 10 µM,ROCK2,82%
